Assay results reported in US20250339409A1, “USES OF PAN BET INHIBITORS” (VYNE THERAPEUTICS INC., priority 2021, published 2025).
Read-outs that look alike come from different tables or passages of the source.

Tests used:
[1] = tested on: IL4, IL13, IL31, CCL17, CCL26, CCL2 gene expression in Th2 stimulated human skin; assay: Th2 stimulated human skin explants, RT-qPCR of biomarkers; assay type: cell-based; settings: Homo sapiens, calculated to Th2 stimulated control; for inhibition at 2.5 µM: 2.50 μM
From the text: (§1) Human skin biopsy tissue was stimulated to induce a Th17 immuno-phenotype using a method derived from Feghali-Bostwick et al. Induction of a Th17 phenotype in human skin—a mimic of dermal inflammatory diseases, Methods and Protocols, 2, 45 (2019). The pharmacodynamic assay described therein involves a similar paradigm to elicit a Th2 response and is used to evaluate the therapeutic potential of the active compounds (e.g., BETi1; and
(§2) Freshly excised healthy human skin tissue from abdominoplasties is defatted, cleaned and sectioned into 7 mm biopsies. The biopsies are placed in Transwell® inserts with the epidermis apical and exposed to air and the dermis submerged in media in the basal chamber. The biopsies are pre-treated overnight at 37° C., 5% CO2 with different compounds and controls added to the media in the basal chamber.
(§3) The next day, contents of the basal chamber is replaced with fresh media containing the test compound (listed below) and a stimulation cocktail for either Th2 inflammation (proprietary of service provider cocktail) or Th17 inflammation (mix of antibodies against CD3, CD28, IL-4, IFNγ and recombinant IL-1β, IL-6, IL-21, TGF-β). The biopsies are incubated at 37° C., 5% CO2 for a further 24 hrs.
(§4) A list of all the treatments is provided below: • 1. Untreated control (for both stimulations) • 2. Th2 stimulated control • 3. Th17 stimulated control • 4. Th2+BETia at 0.01, 0.04, 0.16, 0.63, 2.50, and 10 μM • 5. Th2+BETi1 at 0.01, 0.04, 0.16, 0.63, 2.50, and 10 μM • 6. Th2+Ruxolitinib at 0.01, 0.04, 0.16, 0.63, 2.50, and 10 μM • 7. Th2+betamethasone valerate 210 μM (equivalent to 0.01%) • 8. Th17+BETia at 10 μM • 9. Th17+BETi1 at 10 μM • 10. Th17+Ruxolitinib at 10 μM • 11. Th17+betamethasone valerate 210 μM (equivalent to 0.01%)
(§5) After harvesting, the biopsies are cut in half, and one half is homogenized and used for RNA extraction by standard methods and inflammatory pathways is assessed by RT-qPCR. The ability of BETi1 or BETia to inhibit the activity of up to six biomarkers per stimulation is reported as percent activity calculated to stimulated control and fold change in gene expression calculated to untreated control with respect to Th2 (IL4, IL13, IL31, CCL17, CCL26, CCL2) and Th17 (CXCL10, IL17α, IL22, IL36γ, CCL20, SerpinB4). Statistical analysis is performed on data sets from all 3 donors combined and compares the percent inhibition of each biomarker by each treatment calculated to its respective vehicle.
(§6) qPCR values were calculated using the relative quantification approach outlined by Livak, et al (2001) (Section 9, Reference 2). The Ct values (threshold cycle) defined as the fractional cycle number at which the amount of amplified target reaches a fixed threshold, were normalised to the Ct value of an internal biomarker or ‘housekeeping gene’ (GAPDH). The higher limit of detection was set at a Ct value of 40, and any target having not reached Ct by 40 cycles was set to this value. The delta Ct values (dt(Ct)) refers to the Ct of the gene of interest minus the Ct of the internal biomarker. The ddt(Ct) is the dt(Ct) value of the gene minus the average dt(Ct) value of the untreated samples. The ddt(Ct) is converted to power by the equation; =power(2,dt(Ct)). Fold change was calculated as ratio of the power of the gene of interest divided by the average power of the untreated samples. This normalizes the untreated samplers to a value of 1. For the comparison of multiple skin donors, the stimulated samples were normalized to 100% maximum activity (such to normalize variability between different skin donors). Percent activity was calculated as the percent increase or decrease in stimulation compared to the stimulated samples set at 100% maximum activity. Percent change was calculated as: Inhibition=(100−(avg % activity/stimulated)*100). Statistical analysis was performed using One-way ANOVA with Dunnett's Multiple Comparisons (non parametric). […]

[2] = tested on: CXCL10, IL17α, IL22, IL36γ, CCL20, SerpinB4 gene expression in Th17 stimulated human skin; assay: Th17 stimulated human skin explants, RT-qPCR of biomarkers; assay type: cell-based; settings: Homo sapiens, 10 μM, calculated to Th17 stimulated control, three skin donors
From the text: as §1, §2, §3, §4, §5, §6

With `CCNC(=O)c1cc2c(-c3ccn(C)c(=O)c3Oc3c(C)cc(F)cc3C)cn(C)c(=O)c2[nH]1` [BETia] the inhibition at 0.01 µM ([1]; read-out: % Inhibition CCL17) was 28.2%, the inhibition at 0.01 µM ([1]; read-out: % Inhibition CCL26) was 8.3% and the inhibition at 0.01 µM ([1]; read-out: % Inhibition IL31) was under 0%. The inhibition at 0.01 µM ([1]; read-out: % inhibition CCL2) was under 0%, the inhibition at 0.01 µM ([1]; read-out: % inhibition IL4) was under 0% and the inhibition at 0.01 µM ([1]; read-out: % inhibition IL13) was 22%. The inhibition at 0.04 µM ([1]; read-out: % Inhibition CCL26) was about 38%, the inhibition at 0.04 µM ([1]; read-out: % Inhibition IL31) was under 0% and the inhibition at 0.04 µM ([1]; read-out: % inhibition CCL2) was under 0%. It also gave an inhibition at 0.04 µM ([1]; read-out: % inhibition IL4) of under 0%, an inhibition at 0.04 µM ([1]; read-out: % inhibition IL13) of 15.8% and an inhibition at 0.16 µM ([1]; read-out: % Inhibition CCL17) of 31.8%. The inhibition at 0.16 µM ([1]; read-out: % Inhibition CCL26) was 46.3%, the inhibition at 0.16 µM ([1]; read-out: % Inhibition IL31) was 19.1% and the inhibition at 0.16 µM ([1]; read-out: % inhibition CCL2) was under 0%. For the same compound, the inhibition at 0.16 µM ([1]; read-out: % inhibition IL4) was 56.8%, the inhibition at 0.16 µM ([1]; read-out: % inhibition IL13) was 27.7% and the inhibition at 0.63 µM ([1]; read-out: % Inhibition CCL17) was 25.4%. For the same compound, the inhibition at 0.63 µM ([1]; read-out: % Inhibition CCL26) was 2.8%, the inhibition at 0.63 µM ([1]; read-out: % inhibition CCL2) was under 0% and the inhibition at 0.63 µM ([1]; read-out: % inhibition IL13) was 22.3%. For the same compound, the inhibition at 2.5 µM ([1]; read-out: % Inhibition CCL17) was 30%, the inhibition at 2.5 µM ([1]; read-out: % Inhibition CCL26) was 8% and the inhibition at 2.5 µM ([1]; read-out: % inhibition CCL2) was under 0%. For the same compound, the inhibition at 2.5 µM ([1]; read-out: % inhibition IL4) was 57.5%, the inhibition at 2.5 µM ([1]; read-out: % inhibition IL13) was 24.9% and the inhibition at 10 µM ([1]; read-out: % Inhibition CCL26) was about 8%. The inhibition at 10 µM ([1]; read-out: % inhibition CCL2) was 21.5%, the inhibition at 10 µM ([1]; read-out: % inhibition IL4) was about 76% and the inhibition at 10 µM ([1]; read-out: % inhibition IL13) was 53.4%. It also gave an inhibition at 10 µM ([2]; read-out: % inhibition CCL20) of 40.1%, an inhibition at 10 µM ([2]; read-out: % inhibition CXCL10) of 71.3% and an inhibition at 10 µM ([2]; read-out: % inhibition IL22) of 79.7%. For the same compound, the inhibition at 10 µM ([2]; read-out: % inhibition IL36γ) was 78.2% and the inhibition at 10 µM ([2]; read-out: % inhibition Serpinβ4) was 71.2%.
